The source of these data is patent US10266548B2, “Substituted benzylindazoles for use as Bub1 kinase inhibitors in the treatment of hyperproliferative diseases” (Bayer Intellectual Property GmbH, priority 2011, dated 2019).

The structures appear in SMILES notation.

In this assay the target is catalytic domain of human Bub1 (amino acids 704-1085) (Homo sapiens (Human), UniProt O43683). Put plainly: Bub1 kinase assay (TR-FRET). Type of assay: biochemical. The settings on record: 10 μM ATP, 1 μM peptide substrate; read-out: Biological Assay 1: Bub1 kinase assay median IC50. On the procedure: To this end, 100-fold concentrated compound solutions (in DMSO) were previously prepared by serial dilution (1:3.4) of 2 mM stocks in a clear low volume 384-well source microtiter plate (Greiner Bio-One, Frickenhausen, Germany), from which 50 nl of compounds were transferred into a black low volume test microtiter plate from the same supplier. […] The resulting mixture (5 μl final volume) was incubated at 22° C. during 60 min., and the reaction was stopped by the addition of 5 μl of an aqueous EDTA-solution (50 mM EDTA, in 100 mM HEPES pH 7.5 and 0.2% (w/v) bovine serum albumin) which also contained the TR-FRET detection reagents (0.2 μM streptavidin-XL665 [Cisbio Bioassays, Codolet, France] and 1 nM anti-phosho-Serine antibody [Merck Millipore, cat. #35-001] and 0.4 nM LANCE EU-W1024 labeled anti-mouse IgG antibody [Perkin-Elmer, product no. AD0077, alternatively a Terbium-cryptate-labeled anti-mouse IgG antibody from Cisbio Bioassays can be used]). The stopped reaction mixture was further incubated 1 h at 22° C. in order to allow the formation of complexes between peptides and detection reagents. Subsequently, the amount of product was evaluated by measurement of the resonance energy transfer from the Eu-chelate-antlbody complex recognizing the Phosphoserlne residue to the streptavidin-XL665 bound to the biotin moiety of the peptide. […] IC50 values were calculated by fitting the normalized inhibition data to a 4-parameter logistic equation (Minimum, Maximum, IC50, Hill; Y=Max+(Min−Max)/(1+(X/IC50)Hill)) using a Bayer-proprietary analysis software.
catalytic domain of human Bub1 (amino acids 704-1085), sequence (O43683 704-1085): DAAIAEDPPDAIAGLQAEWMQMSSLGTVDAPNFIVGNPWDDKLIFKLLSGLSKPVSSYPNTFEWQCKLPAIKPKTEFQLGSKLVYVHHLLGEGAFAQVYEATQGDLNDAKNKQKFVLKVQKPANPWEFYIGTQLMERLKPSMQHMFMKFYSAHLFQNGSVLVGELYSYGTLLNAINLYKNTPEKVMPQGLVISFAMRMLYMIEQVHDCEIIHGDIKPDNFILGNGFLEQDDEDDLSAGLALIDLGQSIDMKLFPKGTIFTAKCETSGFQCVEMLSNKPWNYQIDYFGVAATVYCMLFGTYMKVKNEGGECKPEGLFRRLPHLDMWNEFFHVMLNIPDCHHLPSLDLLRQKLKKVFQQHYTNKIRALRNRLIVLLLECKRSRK
(TR-FRET usually uses a lanthanide donor and a delayed reading to cut background.)
`CC(C)(C)OC(=O)NCCOCCOc1cnc(-c2nn(Cc3ccccc3F)c3ccccc23)nc1Nc1ccncc1` [Example 4-20, tert-butyl {2-[2-({2-[1-(2-fluorobenzyl)-1H-indazol-3-yl]-4-(pyridin-4-ylamino)pyrimidin-5-yl}oxy)ethoxy]ethyl}carbamate]: the IC50 – broadly, the midpoint of a concentration-inhibition curve – was determined as 210 nM.
In the case of `COc1cnc(-c2nn(Cc3ccc(C(C)(C)O)cc3Cl)c3ccccc23)nc1Nc1ccncc1` [Example 9-1, 2-[3-chloro-4-({3-[5-methoxy-4-(pyridin-4-ylamino)pyrimidin-2-yl]-1H-indazol-1-yl}methyl)phenyl]propan-2-ol], the IC50 turned out to be 9.8 nM.
Consider `COc1cnc(-c2nn(Cc3c(Cl)ccc(C(=O)O)c3Cl)c3ccccc23)nc1Nc1ccncc1` [Example 19-1, 2,4-dichloro-3-({3-[5-methoxy-4-(pyridin-4-ylamino)pyrimidin-2-yl]-1H-indazol-1-yl}methyl)benzoic acid], for which the IC50 amounted to 20000 nM.
The value for `CNC(=O)c1cc(F)c(Cn2nc(-c3ncc(OC)c(Nc4ccncc4)n3)c3ccccc32)c(F)c1` [Example 20-6, 3,5-difluoro-4-({3-[5-methoxy-4-(pyridin-4-yla-mino)pyrimidin-2-yl]-1H-indazol-1-yl}methyl)-N-methylbenzamide] was 6700 nM; that for `OCC1COc2cnc(-c3nn(Cc4ccccc4F)c4ccccc34)nc2N1c1ccncc1` (centres unmarked) [Example 22-1, {2-[1-(2-fluorobenzyl)-1H-indazol-3-yl]-8-(pyridin-4-yl)-7,8-dihydro-6H-pyrimido[5,4-b][1,4]oxazin-7-yl}methanol] was 770 nM.
The value for `COC(=O)c1cnccc1Nc1nc(-c2nn(Cc3ccccc3F)c3ccccc23)ncc1OC` [Example 24-2, methyl 4-({2-[1-(2-fluorobenzyl)-1H-indazol-3-yl]-5-methoxypyrimidin-4-yl}amino)pyridine-3-carboxylate] was 20000 nM; that for `COc1cnc(-c2nn(Cc3ccccc3F)c3ccccc23)nc1N(c1ccncc1)c1ccncc1` [Example 24-4] was 4280 nM; that for `CCOc1cc(F)c(Cn2nc(-c3ncc(OC)c(Nc4ccncc4C#N)n3)c3ccccc32)c(F)c1` [Example 24-5, 4-({2-[1-(4-ethoxy-2,6-difluorobenzyl)-1H-indazol-3-yl]-5-methoxypyrimidin-4-yl}amino)pyridine-3-carbonitrile] was 11 nM.
For the molecule `CCOc1cc(O)c(Cn2nc(-c3ncc(OC)c(Nc4cc(C)nc(C)c4)n3)c3ccccc32)c(F)c1` [Example 24-6, 2-[(3-[4-[(2,6-dimethylpyridin-4-yl)amino]-5-methoxypyrimidin-2-yl}-1H-indazol-1-yl)methyl]-5-ethoxy-3-fluorophenol], the IC50 worked out at 940 nM.
As for `N#Cc1cnccc1Nc1nc(-c2nn(Cc3ccccc3F)c3ccccc23)ncc1Oc1ccncc1C#N` [Example 26-2], the half-inhibitory concentration (IC50) worked out at 2400 nM.
The value for `COc1cnc(-c2nn(Cc3ccc(C(=O)O)cc3Cl)c3ccccc23)nc1Nc1ccncc1` [Example 28-1, 3-chloro-4-({3-[5-methoxy-4-(pyridin-4-ylamino)pyrimidin-2-yl]-1H-indazol-1-yl}methyl)benzoic acid] was 3700 nM; that for `N#Cc1cnc(-c2nn(Cc3ccccc3F)c3ccccc23)nc1Nc1ccncc1` [Example 31-1, 2-[1-(2-fluorobenzyl)-1H-indazol-3-yl]-4-(pyridin-4-ylamino)pyrimidine-5-carbonitrile] was 4700 nM.
`COc1ccc(Cn2nc(-c3ncc(OC)c(Nc4ccnc(C)c4)n3)c3ccccc32)cc1` [Example 34-4, 5-methoxy-2-[1-(4-methoxybenzyl)-1H-indazol-3-yl)-N-(2-methylpyridin-4-yl)pyrimidin-4-amine]: the IC50 was 120 nM.
To `CCOc1cc(F)c(Cn2nc(-c3nccc(N(c4ccncc4)C(F)F)n3)c3ccccc32)c(F)c1` [Example 35-1, N-(difluoromethyl)-2-[1-(4-ethoxy-2,6-difluorobenzyl)-1H-indazol-3-yl]-N-(pyridin-4-yl)pyrimidin-4-amine] belongs 1300 nM.
